Measurements taken from the supplement of paper PMC10883282.
Structures can show the parent of a compound that is named as a salt. ± gives the standard deviation of the averaged measurements.

Tested on: RD-ES
Assay: relative viability vs DMSO control (72 h) (fraction); higher = more viable cells
In short: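 Percent growth from ATPLite readings, averaged over up to triplicate wells, was used as relative viability. Sarcoma cell lines were seeded into 384-well plates for 80–90% confluence, dosed after 24 h, and kept 72 h at 37 °C, 5% CO2. Data were rescaled to a range where 1 is full and 0 is none.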

| Compound | relative viability (0.00017 µM) | relative viability (0.00051 µM) | relative viability (0.00152 µM) | relative viability (0.00457 µM) | relative viability (0.01372 µM) | relative viability (0.04115 µM) | relative viability (0.1235 µM) | relative viability (0.3704 µM) | relative viability (1.111 µM) | relative viability (3.333 µM) | relative viability (10 µM) |
| --- | --- | --- | --- | --- | --- | --- | --- | --- | --- | --- | --- |
| Cc1cc(C)c(/C=C2\C(=O)Nc3ccccc32)[nH]1 [Semaxanib] | 0.962 ± 0.022 | 0.973 ± 0.034 | 0.961 ± 0.052 | 0.994 ± 0.02 | 0.969 ± 0.053 | 0.976 ± 0.013 | 0.93 ± 0.024 | 0.965 ± 0.026 | 0.915 ± 0.064 | 0.871 ± 0.033 | 0.792 ± 0.012 |
| CC1(C)CNc2cc(NC(=O)c3cccnc3NCc3ccncc3)ccc21 [Motesanib] | 0.969 ± 0.051 | 0.962 ± 0.048 | 0.957 ± 0.05 | 1.01 ± 0.038 | 0.964 ± 0.053 | 0.994 ± 0.033 | 0.989 ± 0.035 | 0.991 ± 0.04 | 0.989 ± 0.038 | 0.974 ± 0.062 | 0.846 ± 0.015 |
| CNC(=O)c1ccc(-c2cnc3ncc(Cc4ccc5ncccc5c4)n3n2)cc1F [Capmatinib] | 0.992 ± 0.014 | 1.005 ± 0.0083 | 0.9871 ± 0.0074 | 0.994 ± 0.017 | 0.98 ± 0.021 | 1 ± 0.018 | 1.01 ± 0.023 | 1.03 ± 0.024 | 1.03 ± 0.025 | 1.02 ± 0.011 | 1 ± 0.028 |
| CC(C)N1CCN(Cc2cnc(-c3cc(-c4cccc5[nH]ccc45)cc4[nH]ncc34)o2)CC1 [Nemiralisib] | 1 ± 0.036 | 1 ± 0.016 | 0.973 ± 0.028 | 0.978 ± 0.023 | 0.987 ± 0.03 | 1.02 ± 0.042 | 0.9842 ± 0.004 | 1.01 ± 0.041 | 0.984 ± 0.036 | 0.854 ± 0.016 | 0.223 ± 0.033 |
| CO[C@H]1C[C@@H]2CC[C@@H](C)[C@@](O)(O2)C(=O)C(=O)N2CCCC[C@H]2C(=O)O[C@H]([C@H](C)C[C@@H]2CC[C@@H](OP(C)(C)=O)[C@H](OC)C2)CC(=O)[C@H](C)/C=C(\C)[C@@H](O)[C@@H](OC)C(=O)[C@H](C)C[C@H](C)/C=C/C=C/C=C/1C [Ridaforolimus] | 0.988 ± 0.013 | 0.978 ± 0.019 | 0.893 ± 0.039 | 0.804 ± 0.0091 | 0.754 ± 0.019 | 0.71 ± 0.011 | 0.6822 ± 0.0053 | 0.674 ± 0.0087 | 0.693 ± 0.025 | 0.66 ± 0.026 | 0.627 ± 0.021 |
| Nc1cc(C(F)(F)F)c(-c2cc(N3CCOCC3)nc(N3CCOCC3)n2)cn1 [Buparlisib] | 0.97 ± 0.037 | 0.956 ± 0.025 | 0.946 ± 0.026 | 0.949 ± 0.021 | 0.935 ± 0.013 | 0.922 ± 0.01 | 0.864 ± 0.0088 | 0.717 ± 0.021 | 0.341 ± 0.0073 | 0.102 ± 0.0037 | 0.0722 ± 0.0025 |
| Cc1ccc(F)c(NC(=O)Nc2ccc(-c3cccc4[nH]nc(N)c34)cc2)c1 [Linifanib] | 1 ± 0.043 | 0.998 ± 0.012 | 0.994 ± 0.011 | 0.978 ± 0.023 | 1 ± 0.028 | 1.01 ± 0.048 | 1 ± 0.014 | 0.982 ± 0.038 | 1.01 ± 0.018 | 0.975 ± 0.022 | 0.983 ± 0.043 |
| N#CC[C@H](C1CCCC1)n1cc(-c2ncnc3[nH]ccc23)cn1 [Ruxolitinib] | 0.938 ± 0.025 | 0.967 ± 0.014 | 0.95 ± 0.031 | 0.949 ± 0.024 | 0.932 ± 0.025 | 0.939 ± 0.05 | 0.933 ± 0.057 | 0.946 ± 0.029 | 0.939 ± 0.028 | 0.941 ± 0.028 | 0.954 ± 0.065 |
| C=CC(=O)Nc1cccc(Oc2nc(Nc3ccc(N4CCN(C)CC4)cc3)nc3ccsc23)c1 [Olmutinib] | 0.914 ± 0.052 | 0.949 ± 0.025 | 0.953 ± 0.022 | 0.953 ± 0.0047 | 0.9443 ± 0.0083 | 0.978 ± 0.015 | 0.979 ± 0.02 | 0.977 ± 0.012 | 0.9749 ± 0.0091 | 0.931 ± 0.068 | 0.774 ± 0.074 |
| CCCS(=O)(=O)Nc1ccc(F)c(C(=O)c2c[nH]c3ncc(-c4ccc(Cl)cc4)cc23)c1F [Vemurafenib] | 0.978 ± 0.032 | 0.983 ± 0.024 | 0.975 ± 0.044 | 0.995 ± 0.051 | 0.982 ± 0.039 | 0.994 ± 0.05 | 0.99 ± 0.041 | 0.991 ± 0.047 | 0.984 ± 0.039 | 0.967 ± 0.042 | 0.7 ± 0.27 |
| Cc1ccc(NC(=O)c2ccc(CN3CCN(C)CC3)cc2)cc1Nc1nc(-c2cccnc2)cs1 [Masitinib] | 0.959 ± 0.018 | 0.957 ± 0.034 | 0.9656 ± 0.0031 | 0.965 ± 0.032 | 0.948 ± 0.041 | 0.985 ± 0.011 | 0.912 ± 0.047 | 0.86 ± 0.05 | 0.726 ± 0.043 | 0.519 ± 0.027 | 0.183 ± 0.0068 |
| Cc1cnc(Nc2ccc(OCCN3CCCC3)cc2)nc1Nc1cccc(S(=O)(=O)NC(C)(C)C)c1 [Fedratinib] | 1.01 ± 0.013 | 1 ± 0.036 | 1.02 ± 0.032 | 1.01 ± 0.027 | 0.98 ± 0.034 | 0.972 ± 0.024 | 0.904 ± 0.026 | 0.7114 ± 0.0066 | 0.145 ± 0.0063 | 0.00883 ± 0.0011 | 0.00587 ± 0.0018 |
| C[C@@H](c1ccc2nccn2c1)n1nnc2ncc(-c3cnn(C)c3)nc21 [Volitinib] | 0.975 ± 0.017 | 1.01 ± 0.019 | 0.98 ± 0.043 | 0.998 ± 0.022 | 1 ± 0.018 | 1 ± 0.013 | 1.02 ± 0.017 | 1.03 ± 0.025 | 0.989 ± 0.062 | 0.995 ± 0.064 | 0.972 ± 0.081 |
| COc1cccc2c1C(=O)c1c(O)c3c(c(O)c1C2=O)C[C@@](O)(C(=O)CO)C[C@@H]3O[C@H]1C[C@H](N)[C@H](O)[C@H](C)O1 [Doxorubicin Hydrochloride] | 1.01 ± 0.032 | 1.03 ± 0.037 | 1.02 ± 0.014 | 1 ± 0.025 | 0.749 ± 0.0091 | 0.374 ± 0.014 | 0.155 ± 0.011 | 0.036 ± 0.0064 | 0.0178 ± 0.0034 | 0.00453 ± 5.8e-05 | 0.0075 ± 0.00089 |
| CCN1CCN(Cc2ccc(Nc3ncc(F)c(-c4cc(F)c5nc(C)n(C(C)C)c5c4)n3)nc2)CC1 [Abemaciclib] | 0.975 ± 0.016 | 0.9649 ± 0.0077 | 0.988 ± 0.02 | 0.961 ± 0.027 | 0.908 ± 0.047 | 0.771 ± 0.038 | 0.638 ± 0.014 | 0.544 ± 0.015 | 0.526 ± 0.074 | 0.447 ± 0.057 | 0.292 ± 0.023 |
| C=CC(=O)N1CCC([C@@H]2CCNc3c(C(N)=O)c(-c4ccc(Oc5ccccc5)cc4)nn32)CC1 [Zanubrutinib] | 0.953 ± 0.033 | 0.956 ± 0.013 | 0.978 ± 0.025 | 0.985 ± 0.025 | 0.978 ± 0.023 | 0.943 ± 0.044 | 0.921 ± 0.027 | 0.942 ± 0.046 | 0.887 ± 0.053 | 0.888 ± 0.07 | 0.904 ± 0.049 |
| COc1cc2/c(=N/c3ccc(Br)cc3F)nc[nH]c2cc1OCC1CCN(C)CC1 [Vandetanib] | 0.944 ± 0.034 | 0.949 ± 0.031 | 0.957 ± 0.01 | 0.939 ± 0.047 | 0.927 ± 0.025 | 0.94 ± 0.041 | 0.944 ± 0.053 | 0.922 ± 0.056 | 0.804 ± 0.054 | 0.648 ± 0.029 | 0.0224 ± 0.01 |
| C[C@@H]1COCCN1c1cc(-c2ccnn2C)c2ccnc(-c3ccn[nH]3)c2n1 | 0.987 ± 0.036 | 1.02 ± 0.044 | 1.04 ± 0.047 | 1.02 ± 0.04 | 1.01 ± 0.034 | 0.957 ± 0.0036 | 0.686 ± 0.026 | 0.279 ± 0.015 | 0.113 ± 0.096 | 0.155 ± 0.019 | 0.156 ± 0.0075 |
| C[C@]1(O)C[C@@H](c2nc(-c3ccc4ccc(-c5ccccc5)nc4c3)c3c(N)nccn32)C1 [Linsitinib] | 0.986 ± 0.02 | 0.992 ± 0.034 | 0.982 ± 0.017 | 0.967 ± 0.015 | 0.928 ± 0.014 | 0.8432 ± 0.005 | 0.661 ± 0.017 | 0.451 ± 0.028 | 0.382 ± 0.016 | 0.354 ± 0.018 | 0.309 ± 0.0052 |
